Entries after “also recorded” stand apart in the source; their conditions may differ. Peptide text beside a SMILES is read from it. * marks the point of attachment. Cbz = O=C(OCc1ccccc1)*; CH2F = FC*
Assays:
Type in all cases: cell-based
NIH3T3 cells = assay: Annexin V labeling in NIH 3T3 cells (FACS); conditions: zVAD-FMK 42 μM added at the time of transfection; cells harvested 24 hours later; NORECAAX + wild type MST1, or myrMST1
Method: Annexin V labeling in NIH 3T3 cells. The assay was as described in (van Engeland et al., Cytometry, 24: 131-139 (1996)) with some modifications. NIH 3T3 cells were plated at 3-4×10^5 per well in a 6-well plate the day before transfection. Cells were transfected in duplicate with 6 μg of DNA and 10 μl of LIPOFECTAMINE™ 2000 transfection reagent (GIBCO BRL, Gaithersburg, Md.) in the presence of 10% serum, as recommended by manufacturer, and left for 19-23 hours. In some experiments, Z-Vad-FMK (Calbiochem) was added to 42 μM (final concentration) at the time of transfection. Rat annexinV, purified from liver or recombinant, labeled with Alexa 488 dye was added to the culture media to 1 mg/ml and cells were incubated 5 minutes at 37° C., followed by 25 minutes at room temperature in the dark. Media with floating cells was transferred to 5 ml centrifuge tubes on ice; the plates were washed twice with 1 ml of HBS (20 mM HEPES, pH 7.4, 150 mM NaCl, 2.5 mM CaCl2) and the washes were added to the tubes with media. Floating cells were pelleted, resuspended in 3 ml of HBS and pelleted again. Adherent cells were scraped into 1 ml HBS, pooled with floating cells from the same dish and resuspended by vortexing. […] Cells were analyzed by Coulter EPICS V XL flow cytometer; the percent of annexinV-positive cells was calculated by the cytometer software. […]

HEK293 cells = assay: Apoptosis assay in HEK293 cells (trypan blue exclusion); conditions: incubation with zVAD-FMK, data not shown
Method: Transient transfections were performed using LIPOFECTAMINE™ transfection reagent (Gibco BRL, Gaithersburg, Md.) according to the manufacturer's instructions. […] Each well was transfected with a total of 0.5 μg DNA and 3.5 μl LIPOFECTAMINE™ transfection reagent.

Jurkat cells = assay: Jurkat cell survival by flow cytometry (GFP positive live cells); conditions: incubation with zVAD-FMK, data not shown
Method: The Jurkat/T antigen cell line was cultured in complete IMDM medium supplemented with 10% FCS, 2 mM glutamine and gentamycin (50 μg/ml) in a humidified incubator with 5% CO2 in air at 37° C. The cells were kept at a density of 0.5-1×10^6/ml. Aliquots containing 3×10^6 Jurkat cells were electorporated at 250 volts and 960 μF with mixtures of plasmids as indicated in the Figures together with 1 μg of cDNA encoding GFP. Twenty-four hours post transfection, cell survival was analyzed by flow cytometry using a previously optimized program to measure percentage of live cells that are GFP positive present in forward scatter/side scatter gate in each experimental condition (Vermes et al., J. Immunol. Meth., 243: 167-190 (2000)). The vital GFP positive cells were selected on the basis of unchanged scatter signals when compared to untransfected cells and the apoptotic cell population with decreased FS and increased SS was excluded from the analysis. The data was expressed as “percent cells surviving” with vector controls set to 100%.

**Q.** With `COC(=O)C[C@H](NC(=O)[C@H](C)NC(=O)[C@@H](NC(=O)OCc1ccccc1)C(C)C)C(=O)CF` [zVAD-FMK] (Cbz-Val-Ala-Asp(OMe)-CH2F) as the molecule, how does the “suppression of NORECAAX and MST1-induced annexin V binding (staining)” value (NIH3T3 cells) read?
**A.** suppresses; also recorded: fully suppressed

**Q.** And the “suppression of killing caused by low doses of NORECAAX with MST1” value (HEK293 cells)?
**A.** suppressed

**Q.** What about the “suppression of killing caused by low doses of NORECAAX with MST1” value (Jurkat cells) of the same molecule?
**A.** suppressed

From US20050064384A1, “Recruitment of mst1 or mst2 protein kinase to induce apoptosis in eukaryotic cells” (priority 2001, published 2005)
